Measured values taken from patent US20240158446A1, “CYCLIC COMPOUND HAVING SELECTIVE INHIBITORY ACTION ON KRAS OVER HRAS AND NRAS” (CHUGAI SEIYAKU KABUSHIKI KAISHA, priority 2021, published 2024).
pKd: −log10 of the molar value. *1 amine or outer side, *2 acyl side, *3 side chain or, on linkers, in order; H or OH if unused. Where a SMILES comes first, the peptide text is derived from it. Bridges are numbered along the chain shown (N, C = ends). [ ]: non-standard residue; d: D form. The star is where a group is joined. hPhe(3-Cl-4-CF3) = N[C@@H](CCc1ccc(C(F)(F)F)c(Cl)c1)C(=O)O; NPrPhe(4-CF3) = CCCN[C@@H](Cc1ccc(C(F)(F)F)cc1)C(=O)O; NEtAsp = CCN([C@@H](CC(=O)[*:3])C(=O)[*:2])[*:1]; NMeGly(cPent) = CN[C@H](C(=O)O)C1CCCC1; Ac4c(3,3-Me2) = CC1(C)CC(N)(C(=O)O)C1; NMeNva(3-Et) = CCC(CC)[C@H](NC)C(=O)O; NMeD = CN[C@@H](CC(=O)O)C(=O)O; NMeL = CN[C@@H](CC(C)C)C(=O)O; Morpholide = C1CN(*)CCO1; NMeA = CN[C@@H](C)C(=O)O; Aze = O=C(O)[C@@H]1CCN1; Ac4c = NC1(C(=O)O)CCC1; Sar = CNCC(=O)O

Columns and labels:
[1] = biological target: GDP-bound NRAS wild-type protein (Homo sapiens, UniProt P01111); experiment: Binding to NRAS by surface plasmon resonance (SPR), Single Cycle Kinetics; details: ratio of KD for GDP-bound NRAS wild-type protein to KD for KRAS, SPR
Chain of GDP-bound NRAS wild-type protein (P01111 whole entry): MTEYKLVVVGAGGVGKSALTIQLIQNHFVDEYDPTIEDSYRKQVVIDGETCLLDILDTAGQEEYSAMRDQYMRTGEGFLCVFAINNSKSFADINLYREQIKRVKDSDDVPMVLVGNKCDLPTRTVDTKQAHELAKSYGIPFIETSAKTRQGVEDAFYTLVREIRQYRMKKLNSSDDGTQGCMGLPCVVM

[2] = system: human lung cancer strain NCI-H441; experiment: cells; details: NCI-H441, 96 h, read-out: NCI-H441 IC50 (nM), NCI-H441 cell proliferation, 4 days, CellTiter-Glo;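 further: cell proliferation inhibition after four days measured by CellTiter-Glo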
[3] = biological target: GDP-bound KRAS wild-type protein (Homo sapiens, UniProt P01116); experiment: Binding to KRAS by surface plasmon resonance (SPR), Single Cycle Kinetics; details: SPR, Single Cycle Kinetics, GDP-bound KRAS wild-type protein; read-out: KRAS KD
Chain of GDP-bound KRAS wild-type protein (P01116 whole entry): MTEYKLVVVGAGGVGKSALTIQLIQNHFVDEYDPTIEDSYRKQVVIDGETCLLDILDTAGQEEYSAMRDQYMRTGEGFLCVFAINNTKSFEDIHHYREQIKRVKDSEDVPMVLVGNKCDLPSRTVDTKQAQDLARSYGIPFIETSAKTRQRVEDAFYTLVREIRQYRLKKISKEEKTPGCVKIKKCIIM

[4] = biological target: GDP-bound HRAS wild-type protein (Homo sapiens, UniProt P01112); experiment: Binding to HRAS by surface plasmon resonance (SPR), Single Cycle Kinetics; details: ratio of KD for GDP-bound HRAS wild-type protein to KD for KRAS, SPR
Chain of GDP-bound HRAS wild-type protein (P01112 whole entry): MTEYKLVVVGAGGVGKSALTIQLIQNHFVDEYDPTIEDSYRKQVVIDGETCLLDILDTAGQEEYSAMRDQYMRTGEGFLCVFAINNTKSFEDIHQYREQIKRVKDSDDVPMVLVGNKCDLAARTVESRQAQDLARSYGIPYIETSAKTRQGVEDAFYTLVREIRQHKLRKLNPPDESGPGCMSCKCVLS

IC50 [2] [nM] | pKd [3] | Structure (SMILES) | NRAS/KRAS (KD ratio) [1] | HRAS/KRAS (KD ratio) [4]
8.6 | 9.44 | CCCN1C(=O)[C@@H]2CCN2C(=O)[C@H](C)N(C)C(=O)[C@H]([C@@H](C)CC)NC(=O)[C@H](CC(C)C)N(C)C(=O)C[C@@H](C(=O)N(C)C)N(CC)C(=O)[C@H](C2CCCC2)N(C)C(=O)C2(CCC2)NC(=O)[C@@H]2CCCN2C(=O)[C@H](CCc2ccc(C(F)(F)F)c(Cl)c2)NC(=O)CN(C)C(=O)[C@@H]1Cc1ccc(C(F)(F)F)cc1 [PP1957] ([NMeL]I[NMeA][Aze][NPrPhe(4-CF3)][Sar][hPhe(3-Cl-4-CF3)]P[Ac4c][NMeGly(cPent)][NEtAsp]-NMe2; lactam N-11) | C (A compound having a KD ratio of 0.1 or more and less than 3 is denoted as C) | B (a compound having 3 or more and less than 10 is denoted as B)
15.5 | 9.92 | CCO[C@@H]1C[C@H]2C(=O)NC3(CCC3)C(=O)N(C)[C@@H](C3CCCC3)C(=O)N(C)[C@H](C(=O)N(C)CC)CC(=O)N(C)[C@@H](C3CCC3)C(=O)N[C@@H]([C@@H](C)CC)C(=O)N(C)CC(=O)N(C)[C@H]3C/C=C\CCN(C3=O)[C@@H](Cc3ccc(C(F)(F)F)cc3)C(=O)N(C)CC(=O)N[C@@H](CCc3cc(F)c(C(F)(F)F)c(F)c3)C(=O)N2C1 [PP1996] | A (a compound having 10 or more and less than 20 is denoted as A) | B (a compound having 3 or more and less than 10 is denoted as B)
24.3 | 9.42 | CC[C@H](C)[C@@H]1NC(=O)[C@H](CC)N(C)C(=O)C[C@@H](C(=O)N(CC)CC)N(C)C(=O)[C@H](C2CCCC2)N(C)C(=O)C2(CC(C)(C)C2)NC(=O)[C@@H]2C[C@@H](C)CN2C(=O)[C@H](CCc2ccc(C(F)(F)F)c(OC)c2)NC(=O)CN(C)C(=O)[C@H](Cc2ccc(C)cc2)N2CC/C=C\C[C@@H](C2=O)N(C)C(=O)CN(C)C1=O [PP1841] | AA (a compound having 20 or more is denoted as AA) | A (a compound having 10 or more and less than 20 is denoted as A)
79.3 | 9.44 | CCC[C@H]1C(=O)N[C@@H]([C@@H](C)CC)C(=O)N(C)CC(=O)N(C)[C@H]2C/C=C\CCN(C2=O)[C@@H](Cc2ccc(C(F)(F)F)cc2)C(=O)N(C)CC(=O)N[C@@H](CCc2cc(F)c(C(F)(F)F)c(F)c2)C(=O)N(CC)CC(=O)NC2(CC(C)(C)C2)C(=O)N(C)[C@@H](C2CCCC2)C(=O)N(C)[C@H](C(=O)N(C)C)CC(=O)N1C [PP1777] | A (a compound having 10 or more and less than 20 is denoted as A) | B (a compound having 3 or more and less than 10 is denoted as B)
22.5 | 9.54 | CCCN(C)C(=O)[C@@H]1CC(=O)N(C)[C@@H](CC(C)C)C(=O)N[C@@H]([C@@H](C)OC)C(=O)N(C)CC(=O)N(C)[C@H]2C/C=C\CCN(C2=O)[C@@H](Cc2ccc(C(F)(F)F)cc2)C(=O)N(C)CC(=O)N[C@@H](CCc2cc(F)c(C(F)(F)F)c(F)c2)C(=O)N2C[C@H](OCC)C[C@H]2C(=O)NC2(CC(C)(C)C2)C(=O)N(C)[C@@H](C2CCCC2)C(=O)N1C [PP1917] | A (a compound having 10 or more and less than 20 is denoted as A) | A (a compound having 10 or more and less than 20 is denoted as A)
11 | 10.22 | CCCN(C)C(=O)[C@@H]1CC(=O)N(C)[C@@H](COCC)C(=O)N[C@@H]([C@@H](C)CC)C(=O)N(C)CC(=O)N(C)[C@H]2C/C=C\CCN(C2=O)[C@@H](Cc2ccc(C(F)(F)F)cc2)C(=O)N(C)CC(=O)N[C@@H](CCc2cc(F)c(C(F)(F)F)c(F)c2)C(=O)N2C[C@H](OCC)C[C@H]2C(=O)NC2(CCC2)C(=O)N(C)[C@@H](C2CCCC2)C(=O)N1C [PP1988] | A (a compound having 10 or more and less than 20 is denoted as A) | A (a compound having 10 or more and less than 20 is denoted as A)
9.1 | 9.74 | CCCN1C(=O)CN(C)C(=O)CN(C)C(=O)[C@H]([C@@H](C)OC)NC(=O)[C@H](CC(C)C)N(C)C(=O)C[C@@H](C(=O)N2CCOCC2)N(C)C(=O)[C@H](C2CCCC2)N(C)C(=O)C2(CC(C)(C)C2)NC(=O)[C@@H]2CCCN2C(=O)[C@H](CCc2ccc(C(F)(F)F)c(Cl)c2)NC(=O)CN(C)C(=O)[C@@H]1Cc1ccc(C(F)(F)F)cc1 [PP1963] ([NMeL]T(Me)[Sar][Sar][NPrPhe(4-CF3)][Sar][hPhe(3-Cl-4-CF3)]P[Ac4c(3,3-Me2)][NMeGly(cPent)][NMeD]-Morpholide; lactam N-11) | B (a compound having 3 or more and less than 10 is denoted as B) | C (A compound having a KD ratio of 0.1 or more and less than 3 is denoted as C)
8.5 | 10.12 | CCO[C@@H]1C[C@H]2C(=O)NC3(CC(C)(C)C3)C(=O)N(C)[C@@H](C3CCCC3)C(=O)N(C)[C@H](C(=O)N(C)C)CC(=O)N(C)[C@@H](CC)C(=O)N[C@@H]([C@@H](C)CC)C(=O)N(C)CC(=O)N(C)[C@H]3C/C=C\CCN(C3=O)[C@@H](Cc3ccc(C)cc3)C(=O)N(C)CC(=O)N[C@@H](CCc3ccc(C(F)(F)F)c(OC)c3)C(=O)N2C1 [PP1873] | A (a compound having 10 or more and less than 20 is denoted as A) | B (a compound having 3 or more and less than 10 is denoted as B)
6 | 9.77 | CCCN1C(=O)CN(C)C(=O)CN(C)C(=O)[C@H]([C@@H](C)CC)NC(=O)[C@H](CC(C)C)N(C)C(=O)C[C@@H](C(=O)N(C)C)N(C)C(=O)[C@H](C(CC)CC)N(C)C(=O)C2(CCC2)NC(=O)[C@@H]2CCCN2C(=O)[C@H](CCc2ccc(C(F)(F)F)c(Cl)c2)NC(=O)CN(C)C(=O)[C@@H]1Cc1ccc(C(F)(F)F)cc1 [PP1960] ([NMeL]I[Sar][Sar][NPrPhe(4-CF3)][Sar][hPhe(3-Cl-4-CF3)]P[Ac4c][NMeNva(3-Et)][NMeD]-NMe2; lactam N-11) | B (a compound having 3 or more and less than 10 is denoted as B) | C (A compound having a KD ratio of 0.1 or more and less than 3 is denoted as C)
3.4 | 10.16 | CCCC[C@H]1C(=O)N[C@@H]([C@@H](C)CC)C(=O)N(C)CC(=O)N(C)[C@H]2C/C=C\CCN(C2=O)[C@@H](Cc2ccc(C(F)(F)F)cc2)C(=O)N(C)CC(=O)N[C@@H](CCc2ccc(C(F)(F)F)c(Cl)c2)C(=O)N2C[C@H](OCC)C[C@H]2C(=O)NC2(CC(C)(C)C2)C(=O)N(C)[C@@H](C2CCCC2)C(=O)N(C)[C@H](C(=O)N(C)C)CC(=O)N1C [PP1750] | A (a compound having 10 or more and less than 20 is denoted as A) | B (a compound having 3 or more and less than 10 is denoted as B)
3 | 10.11 | CCO[C@@H]1C[C@H]2C(=O)NC3(CC(C)(C)C3)C(=O)N(C)[C@@H](C3CCCC3)C(=O)N(C)[C@H](C(=O)N(C)CC)CC(=O)N(C)[C@@H](COC)C(=O)N[C@@H]([C@@H](C)CC)C(=O)N(C)CC(=O)N(C)[C@H]3C/C=C\CCN(C3=O)[C@@H](Cc3ccc(C(F)(F)F)cc3)C(=O)N(C)CC(=O)N[C@@H](CCc3cc(F)c(C(F)(F)F)c(F)c3)C(=O)N2C1 [PP1671] | A (a compound having 10 or more and less than 20 is denoted as A) | A (a compound having 10 or more and less than 20 is denoted as A)
28 | 8.89 | CCO[C@@H]1C[C@H]2C(=O)NC3(CC(C)(C)C3)C(=O)N(C)[C@@H](C3CCCC3)C(=O)N3CCC[C@@H]3CC(=O)N(C)[C@@H](CC3CC3)C(=O)N[C@@H]([C@@H](C)CC)C(=O)N(C)CC(=O)N(C)[C@H]3C/C=C\CCN(C3=O)[C@@H](Cc3ccc(C(F)(F)F)cc3)C(=O)N(C)CC(=O)N[C@@H](CCc3cc(F)c(C(F)(F)F)c(F)c3)C(=O)N2C1 [PP1611] | B (a compound having 3 or more and less than 10 is denoted as B) | B (a compound having 3 or more and less than 10 is denoted as B)
7.7 | 9.89 | CCCN(C)C(=O)[C@@H]1CC(=O)N(C)[C@@H](CC(F)F)C(=O)N[C@@H]([C@@H](C)CC)C(=O)N(C)CC(=O)N(C)[C@H]2C/C=C\CCN(C2=O)[C@@H](Cc2ccc(C(F)(F)F)cc2)C(=O)N(C)CC(=O)N[C@@H](CCc2ccc(C(F)(F)F)c(OC)c2)C(=O)N2C[C@H](OCC)C[C@H]2C(=O)NC2(CCC2)C(=O)N(C)[C@@H](C2CCCC2)C(=O)N1C [PP2013] | A (a compound having 10 or more and less than 20 is denoted as A) | B (a compound having 3 or more and less than 10 is denoted as B)
5.5 | 10.27 | CCCN(C)C(=O)[C@@H]1CC(=O)N(C)[C@@H](CC2CC2)C(=O)N[C@@H]([C@@H](C)CC)C(=O)N(C)CC(=O)N(C)[C@H]2C/C=C\CCN(C2=O)[C@@H](Cc2ccc(C(F)(F)F)cc2)C(=O)N(C)CC(=O)N[C@@H](CCc2cc(F)c(C(F)(F)F)c(F)c2)C(=O)N2C[C@H](OCC)C[C@H]2C(=O)NC2(CC(F)(F)C2)C(=O)N(C)[C@@H](C2CCCC2)C(=O)N1C [PP1739] | AA (a compound having 20 or more is denoted as AA) | AA (a compound having 20 or more is denoted as AA)
39.9 | 9.28 | CCO[C@@H]1C[C@H]2C(=O)NC3(CC(C)(C)C3)C(=O)N(C)[C@@H](C3CCCC3)C(=O)N(CC)[C@H](C(=O)N(C)C)CC(=O)N(C)[C@@H](CC(C)C)C(=O)N[C@@H]([C@@H](C)CC)C(=O)NCC(=O)N(C)[C@H]3C/C=C\CCN(C3=O)[C@@H](Cc3ccc(C(F)(F)F)cc3)C(=O)N(C)CC(=O)N[C@@H](CCc3cc(F)c(C(F)(F)F)c(F)c3)C(=O)N2C1 [PP1773] | A (a compound having 10 or more and less than 20 is denoted as A) | A (a compound having 10 or more and less than 20 is denoted as A)
